Laboratory results: patent publication US10793557B2, “Sting agonist compounds” (Merck Sharp & Dohme Corp., priority 2018, dated 2020)

How the values were obtained:
full-length HAQ STING = biological target: T1, full-length HAQ STING (Homo sapiens, UniProt Q86WV6, G230A/H232R/R293Q/R71H); experiment: 3H-cGAMP filtration binding assay (HAQ STING); conditions: for EC50: competition with tritiated cGAMP, HAQ STING membrane
T1 construct: AviTag (after GG linker) (C); HRV3C cleavage site (after GS linker) (C); HIS8 (C); made in house; host or cells: Trichoplusia ni (Hi-Five) insect cells infected with baculovirus (virus generated and amplified in Sf21 cells); used as a washed membrane preparation
T1 sequence (Q86WV6 with tags, fused parts or gaps R71H/G230A/H232R/R293Q): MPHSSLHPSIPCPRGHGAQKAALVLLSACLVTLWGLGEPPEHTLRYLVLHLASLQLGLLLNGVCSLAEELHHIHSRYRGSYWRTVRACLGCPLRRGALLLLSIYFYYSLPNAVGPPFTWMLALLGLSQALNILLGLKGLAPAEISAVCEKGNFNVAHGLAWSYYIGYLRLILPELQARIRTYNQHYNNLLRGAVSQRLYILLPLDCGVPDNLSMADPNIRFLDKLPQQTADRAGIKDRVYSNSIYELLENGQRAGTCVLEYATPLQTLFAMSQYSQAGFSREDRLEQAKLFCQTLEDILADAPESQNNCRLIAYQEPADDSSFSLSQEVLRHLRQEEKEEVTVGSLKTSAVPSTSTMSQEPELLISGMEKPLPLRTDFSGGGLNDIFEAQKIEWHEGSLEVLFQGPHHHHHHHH
How it was run: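 Hi-Five (T. ni) membranes overexpressing the STING variant (2.2 ug/ml working) preincubated with compound 60 min at RT in PBS, then [3H]cGAMP (8 nM working stock) added for 60 min at RT. Bound radioactivity captured on GF/B filters and counted by scintillation; EC50 from 4-parameter fit of control-normalized activity.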

[1] = system: secretion of interferon-beta from THP1 cells; experiment: IFN-β secretion in THP1 cell culture (5 h); assay type: cell-based; conditions: Homo sapiens, THP-1, 5 h, 30 uM cGAMP = 100%; for activation at 3 µM: compound at 3 uM, read-out: % Effect relative to 2′3′-cGAMP (@ 3 uM); for activation at 30 µM: compound at 30 μM, read-out: % Effect at 30 μM relative to 2′3′-cGAMP
How it was run: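 IFN-β in supernatant measured by AlphaLISA after a 5 h, 37 °C incubation of THP1 cells with compound (10 concentrations, 30000 down to 1.5 nM, 0.3% DMSO) in low-serum RPMI. Values scaled between DMSO and 30 uM cGAMP controls; 4-parameter curve fit yields EC50.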

full-length WT STING = biological target: T2, full-length WT STING (Homo sapiens, UniProt Q86WV6, H232R); experiment: 3H-cGAMP filtration binding assay (WT STING); conditions: for EC50: competition with tritiated cGAMP, WT STING membrane; for inhibition at 2 µM: at 2,000 nM compound
T2 construct: AviTag (after gg linker) (C); HRV3C cleavage site (after gs linker) (C); HIS8 (C); made in house; host or cells: Trichoplusia ni (Hi-Five) insect cells infected with baculovirus (virus generated and amplified in Sf21 cells); used as a washed membrane preparation
T2 sequence (Q86WV6 with tags, fused parts or gaps H232R): as the sequence (Q86WV6 with tags, fused parts or gaps R71H/G230A/H232R/R293Q) above, with H71R, A230G, Q293R counted along it
How it was run: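 EC50 values come from 4-parameter fits of remaining filter-bound tritium versus log concentration (10-point, 1:3 dilution). Insect-cell membranes carrying full-length WT STING were incubated 60 min at RT with compound and tritiated cGAMP (16 nM working stock) before filtration.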

Structure (SMILES) | EC50 (full-length HAQ STING) | EC50 (full-length WT STING) | inhibition at 7 µM (full-length WT STING; at 7,000 nM compound) | inhibition at 2 µM (full-length WT STING) | inhibition at 2 µM (full-length HAQ STING; at 2,000 nM compound) | activation at 3 µM [1] | activation at 30 µM [1]
COc1cc2sc(C(=O)C[C@H](C)C(=O)O)cc2c(F)c1OCCCCOc1c(OC)cc2sc(C(=O)C[C@H](C)C(=O)O)cc2c1Br [Example 131, (S)-4-(5-(4-((4-bromo-2-((S)-3-carboxybutanoyl)-6-methoxybenzo[b]thiophen-5-yl)oxy)butoxy)-4-fluoro-6-methoxybenzo[b]thiophen-2-yl)-2-methyl-4-oxobutanoic acid] | 25 nM | 242 nM | – | – | – | 38% | –
COc1cc2sc(C(=O)C[C@H](C)C(=O)O)cc2c(Cl)c1OCCCOc1c(OC)cc2sc(C(=O)C[C@H](C)C(=O)O)cc2c1Cl [Example 132, (2S,2′S)-4,4′-(5,5′-(propane-1,3-diylbis(oxy))bis(4-chloro-6-methoxybenzo[b]thiophene-5,2-diyl))bis(2-methyl-4-oxobutanoic acid)] | 3 nM | 10 nM | – | – | – | – | 131%
COc1cc2sc(C(=O)C[C@H](C)C(=O)O)cc2c(Cl)c1OCCCOc1c(OC)cc2sc(C(=O)C[C@H](C)C(=O)O)cc2c1Br [Example 133, (S)-4-(5-(3-((4-bromo-2-((S)-3-carboxybutanoyl)-6-methoxybenzo[b]thiophen-5-yl)oxy)propoxy)-4-chloro-6-methoxybenzo[b]thiophen-2-yl)-2-methyl-4-oxobutanoic acid] | 15 nM | 147 nM | – | – | – | – | 80%
COc1cc2sc(C(=O)C[C@H](C)C(=O)O)cc2c(Br)c1OCCCOc1c(OC)cc2sc(C(=O)C[C@H](C)C(=O)O)cc2c1Br [Example 134, (2S,2′S)-4,4′-(5,5′-(propane-1,3-diylbis(oxy))bis(4-bromo-6-methoxybenzo[b]thiophene-5,2-diyl))bis(2-methyl-4-oxobutanoic acid)] | 22 nM | 233 nM | – | – | – | – | 89%
COc1cc2sc(C[C@@H]3CC[C@H]3C(=O)O)cc2c(F)c1OCCCOc1c(OC)cc2sc(C(=O)C[C@H](C)C(=O)O)cc2c1F [Example 135, 2-((5-(3-((2-((S)-3-carboxybutanoyl)-4-fluoro-6-methoxybenzo[b]thiophen-5-yl)oxy)propoxy)-4-fluoro-6-methoxybenzo[b]thiophen-2-yl)methyl)cyclo-butanecarboxylic acid] | 1 nM | 5 nM | – | – | – | – | 100%
COc1cc2sc(C[C@@H]3CC[C@H]3C(=O)O)cc2c(F)c1OCCCCOc1c(OC)cc2sc(C(=O)C[C@H](C)C(=O)O)cc2c1F [Example 136, 2-((5-(4-((2-((S)-3-carboxybutanoyl)-4-fluoro-6-methoxybenzo[b]thiophen-5-yl)oxy)butoxy)-4-fluoro-6-methoxybenzo[b]thiophen-2-yl)methyl)cyclo-butanecarboxylic acid] | 314 nM | 10300 nM | – | – | – | – | 37%
COc1cc2sc(C(=O)C[C@H](C)C(=O)O)cc2c(F)c1OC(C)CCC(C)Oc1c(OC)cc2sc(C(=O)C[C@H](C)C(=O)O)cc2c1F (stereo partly drawn) [Example 140, (2S,2′S)-4,4′-((hexane-2,5-diylbis(oxy))bis(4-fluoro-6-methoxybenzo[b]thiophene-5,2-diyl))bis(2-methyl-4-oxobutanoic acid)] | 2150 nM | – | 28% | – | – | 31% | –
COc1cc2sc(C(=O)C[C@H](C)C(=O)O)cc2c(F)c1OCC(C)(C)COc1c(OC)cc2sc(C(=O)C[C@H](C)C(=O)O)cc2c1F [Example 143, (2S,2′S)-4,4′-(((2,2-dimethylpropane-1,3-diyl)bis(oxy))bis(4-fluoro-6-methoxybenzo[b]thiophene-5,2-diyl))bis(2-methyl-4-oxobutanoic acid)] | 75 nM | 1450 nM | – | – | – | 26% | –
COc1cc2sc(C(=O)C[C@H](C)C(=O)O)cc2c(F)c1OCC1(COc2c(OC)cc3sc(C(=O)C[C@H](C)C(=O)O)cc3c2F)CC1 [Example 144, (2S,2′S)-4,4′-(((cyclopropane-1,1-diylbis-(methylene))bis (oxy))bis(4-fluoro-6-methoxybenzo[b]thiophene-5,2-diyl))bis(2-methyl-4-oxobutanoic acid)] | 15 nM | 93 nM | – | – | – | – | 8%
COc1cc2sc(CC[C@H](C)C(=O)O)cc2c(F)c1OCCCOc1c(OC)cc2sc(C(=O)C[C@H](C)C(=O)O)cc2c1Cl [Example 147, (S)-4-(5-(3-((2-((S)-3-carboxybutyl)-4-fluoro-6-methoxybenzo[b]thiophen-5-yl)oxy)propoxy)-4-chloro-6-methoxybenzo[b]thiophen-2-yl)-2-methyl-4-oxobutanoic acid] | 18 nM | 207 nM | – | – | – | 71% | –
COc1cc2sc(CC[C@H](C)C(=O)O)cc2c(F)c1OCCCOc1c(OC)cc2sc(C(=O)C[C@H](C)C(=O)O)cc2c1Br [Example 148, (S)-4-(4-bromo-5-(3-((2-((S)-3-carboxybutyl)-4-fluoro-6-methoxybenzo[b]thiophen-5-yl)oxy)propoxy)-6-methoxybenzo[b]thiophen-2-yl)-2-methyl-4-oxobutanoic acid] | 395 nM | 411 nM | – | – | – | 41% | –

Now from value to compound, other results behind:

EC50 (full-length HAQ STING) | EC50 (full-length WT STING) | inhibition at 7 µM (full-length WT STING; at 7,000 nM compound) | inhibition at 2 µM (full-length WT STING) | inhibition at 2 µM (full-length HAQ STING; at 2,000 nM compound) | Structure (SMILES) | activation at 3 µM [1] | activation at 30 µM [1]
40 nM | 319 nM | – | – | – | COc1cc2sc(C(=O)C[C@H](C)C(=O)O)cc2c(F)c1OCCCOc1c(OC)c(Cl)c2sc(C(=O)C[C@H](C)C(=O)O)cc2c1Cl [Example 137, (S)-4-(5-(3-((2-((S)-3-carboxybutanoyl)-4,7-dichloro-6-methoxybenzo[b]thiophen-5-yl)oxy)propoxy)-4-fluoro-6-methoxybenzo[b]thiophen-2-yl)-2-methyl-4-oxobutanoic acid] | – | 155%
2 nM | 2 nM | – | – | – | COc1cc2sc(C(=O)C[C@H](C)C(=O)O)cc2c(F)c1OCCC(C)Oc1c(OC)cc2sc(C(=O)C[C@H](C)C(=O)O)cc2c1F (stereo partly drawn) [Example 138, (2S,2′S)-4,4′-((butane-1,3-diylbis(oxy))bis(4-fluoro-6-methoxybenzo[b]thiophene-5,2-diyl))bis(2-methyl-4-oxobutanoic acid)] | – | 89%
3 nM | 12 nM | – | – | – | COc1cc2sc(C(=O)C[C@H](C)C(=O)O)cc2c(F)c1OCCCC(C)Oc1c(OC)cc2sc(C(=O)C[C@H](C)C(=O)O)cc2c1F (stereo partly drawn) [Example 139, (2S,2′S)-4,4′-((pentane-1,4-diylbis(oxy))bis(4-fluoro-6-methoxybenzo[b]thiophene-5,2-diyl))bis(2-methyl-4-oxobutanoic acid)] | – | 57%
1 nM | 1 nM | – | – | – | COc1cc2sc(C(=O)C[C@H](C)C(=O)O)cc2c(F)c1OCC(C)COc1c(OC)cc2sc(C(=O)C[C@H](C)C(=O)O)cc2c1F [Example 142, (2S,2′S)-4,4′-(((2-methylpropane-1,3-diyl)bis(oxy))bis(4-fluoro-6-methoxybenzo[b]thiophene-5,2-diyl))bis(2-methyl-4-oxobutanoic acid)] | – | 81%
143 nM | – | – | 47% | – | COc1cc2sc(CC[C@H](C)C(=O)O)cc2cc1OCCCOc1c(OC)cc2sc(C(=O)C[C@H](C)C(=O)O)cc2c1Cl [Example 145, (S)-4-(5-(3-((2-((S)-3-carboxybutyl)-6-methoxybenzo[b]thiophen-5-yl)oxy)propoxy)-4-chloro-6-methoxybenzo[b]thiophen-2-yl)-2-methyl-4-oxobutanoic acid] | 59% | –
– | – | – | 18% | 55% | COc1cc2sc(CC[C@H](C)C(=O)O)cc2cc1OCCCOc1c(OC)cc2sc(C(=O)C[C@H](C)C(=O)O)cc2c1Br [Example 146, (S)-4-(4-bromo-5-(3-((2-((S)-3-carboxybutyl)-6-methoxybenzo[b]thiophen-5-yl)oxy)propoxy)-6-methoxybenzo[b]thiophen-2-yl)-2-methyl-4-oxobutanoic acid] | 27% | –
4 nM | 46 nM | – | – | – | COc1cc2sc(CCC(C)(C)C(=O)O)cc2c(F)c1OCCCOc1c(OC)cc2sc(C(=O)CC(C)(C)C(=O)O)cc2c1F [Example 149, 4-(5-(3-((2-(3-carboxy-3-methylbutyl)-4-fluoro-6-methoxybenzo[b]thiophen-5-yl)oxy)propoxy)-4-fluoro-6-methoxybenzo[b]thiophen-2-yl)-2,2-dimethyl-4-oxobutanoic acid] | 70% | –
213 nM | 1040 nM | – | – | – | COc1cc2sc(C(=O)C[C@H](C)C(=O)O)cc2cc1OCCCOc1c(OC)cc2sc(CC[C@H](C)C(=O)O)cc2c1Cl [Example 150, (S)-4-(5-(3-((2-((S)-3-carboxybutyl)-4-chloro-6-methoxybenzo[b]thiophen-5-yl)oxy)propoxy)-6-methoxybenzo[b]thiophen-2-yl)-2-methyl-4-oxobutanoic acid] | 52% | –
